Test results: patent publication US6737383B1, “Herbicidal oxadiazolidines” (priority 1999, dated 2004)

Tests used:
rice = assay: Test B flood test rice; assay type: in vivo, Oryza sativa
Summary of the method: (§1)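 Read-out is a visual response score from 0 (no effect) to 10 (complete control), assigned by comparison with untreated controls. Treatment was applied at the 2-leaf stage, and plants stayed in the greenhouse for twelve to sixteen days before scoring.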

smallflower flatsedge = assay: Test B flood test smallflower flatsedge; assay type: in vivo, Cyperus difformis
Summary of the method: as §1

velvetleaf = assay: Test B pre/postemergence velvetleaf; assay type: in vivo, Abutilon theophrasti
Summary of the method: (§2)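 Herbicidal effect was estimated by eye on a ten-point control scale after plants spent twelve to sixteen days in a greenhouse following soil or foliar treatment. Foliar sprays targeted plants at one to four leaves; all doses were formulated in a non-phytotoxic solvent with surfactant.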

cocklebur = assay: Test B pre/postemergence cocklebur; assay type: in vivo, Xanthium strumarium
Summary of the method: as §2

crabgrass = assay: Test B pre/postemergence crabgrass; assay type: in vivo, Digitaria sanguinalis
Summary of the method: as §2

duck salad = assay: Test B flood test duck salad; assay type: in vivo, Heteranthera limosa
Summary of the method: as §1

corn = assay: Test B pre/postemergence corn; assay type: in vivo, Zea mays
Summary of the method: as §2

purple nutsedge = assay: Test B pre/postemergence purple nutsedge; assay type: in vivo, Cyperus rotundus
Summary of the method: as §2

rape = assay: Test B pre/postemergence rape; assay type: in vivo, Brassica napus
Summary of the method: as §2

giant foxtail = assay: Test B pre/postemergence giant foxtail; assay type: in vivo, Setaria faberii
Summary of the method: as §2

morningglory = assay: Test B pre/postemergence morningglory; assay type: in vivo, Ipomoea hederacea
Summary of the method: as §2

sugar beet = assay: Test B pre/postemergence sugar beet; assay type: in vivo, Beta vulgaris
Summary of the method: as §2

wheat = assay: Test B pre/postemergence wheat; assay type: in vivo, Triticum aestivum
Summary of the method: as §2

blackgrass = assay: Test B pre/postemergence blackgrass; assay type: in vivo, Alopecurus myosuroides
Summary of the method: as §2

pigweed = assay: Test B pre/postemergence pigweed; assay type: in vivo, Amaranthus retroflexus
Summary of the method: as §2

soybean = assay: Test B pre/postemergence soybean; assay type: in vivo, Glycine max
Summary of the method: as §2

[1] = Rate 62 g/ha, headed Pre-emergence (flood test species), scale 0 to 10 (0 no effect, 10 complete control)
[2] = Rate 125 g/ha, Pre-emergence, flood test species, scale 0 to 10 where 0 is no effect and 10 is complete control
[3] = Rate 250 g/ha, Pre-emergence, flood-test species, scale 0 to 10, 0 is no effect, 10 is complete control
[4] = Rate 500 g/ha, Pre-emergence, flood test species, scale 0 to 10 (0 no effect, 10 complete control)
[5] = Preemergence, Rate 62 g/ha, scale of 0 to 10 where 0 is no effect and 10 is complete control
[6] = Preemergence, Rate 250 g/ha, scale 0 to 10, 0 is no effect, 10 is complete control
[7] = Preemergence, Rate 500 g/ha, scale of 0 to 10 where 0 is no effect and 10 is complete control
[8] = Rate 62 g/ha, Postemergence, scale of 0 to 10 where 0 is no effect and 10 is complete control
[9] = Rate 125 g/ha, Postemergence, scale 0 to 10
[10] = Preemergence, Rate 125 g/ha, 0 is no effect, 10 is complete control
[11] = Rate 500 g/ha, Postemergence, scale 0 to 10

## CC(C)N(C(=O)n1oc(=O)n(Cc2ccco2)c1=O)c1ccc(Cl)cc1 [Compound 206]
rice; [1]
  Rice plant response rating: 0
rice; [2]
  Rice plant response rating: 0
rice; [3]
  Rice plant response rating: 0
rice; [4]
  Rice plant response rating: 0
Smallflower flatsedge; [1]
  S. Flatsedge plant response rating: 0
Smallflower flatsedge; [2]
  S. Flatsedge plant response rating: 0
Smallflower flatsedge; [3]
  S. Flatsedge plant response rating: 0
Smallflower flatsedge; [4]
  S. Flatsedge plant response rating: 0
velvetleaf; [5]
  Velvetleaf plant response rating: 0
velvetleaf; [6]
  Velvetleaf plant response rating: 0
velvetleaf; [7]
  Plant response rating, Velvetleaf: 0
velvetleaf; [8]
  Velvetleaf plant response rating: 0
velvetleaf; [9]
  Velvetleaf plant response rating: 0
velvetleaf; Rate 250 g/ha, Postemergence
  Plant response rating (0 to 10; 0 is no effect, 10 is complete control), Velvetleaf: 0
cocklebur; [5]
  Cocklebur plant response rating: 0
cocklebur; [10]
  Cocklebur plant response rating (0 to 10 scale): 0
cocklebur; [6]
  Cocklebur plant response rating: 0
cocklebur; [7]
  Plant response rating, Cocklebur: 0
cocklebur; [8]
  Cocklebur plant response rating: 0
cocklebur; [9]
  Cocklebur plant response rating: 0
cocklebur; Rate 250 g/ha, Postemergence
  Plant response rating (0 to 10; 0 is no effect, 10 is complete control), Cocklebur: 0
cocklebur; [11]
  Cocklebur plant response rating: 0
crabgrass; [5]
  Crabgrass plant response rating: 0
crabgrass; [10]
  Crabgrass plant response rating (0 to 10 scale): 0
crabgrass; [6]
  Crabgrass plant response rating: 3
crabgrass; [7]
  Plant response rating, Crabgrass: 8
crabgrass; [8]
  Crabgrass plant response rating: 0
crabgrass; [9]
  Crabgrass plant response rating: 0
crabgrass; Rate 250 g/ha, Postemergence
  Plant response rating (0 to 10; 0 is no effect, 10 is complete control), Crabgrass: 0
crabgrass; [11]
  Crabgrass plant response rating: 0
Duck salad; [1]
  Ducksalad plant response rating: 0
Duck salad; [2]
  Ducksalad plant response rating: 0
Duck salad; [3]
  Ducksalad plant response rating: 0
Duck salad; [4]
  Ducksalad plant response rating: 0
corn; [5]
  Corn plant response rating: 0
corn; [10]
  Corn plant response rating (0 to 10 scale): 0
corn; [6]
  Corn plant response rating: 0
corn; [7]
  Plant response rating, Corn: 0
corn; [8]
  Corn plant response rating: 0
corn; [9]
  Corn plant response rating: 0
corn; Rate 250 g/ha, Postemergence
  Plant response rating (0 to 10; 0 is no effect, 10 is complete control), Corn: 0
corn; [11]
  Corn plant response rating: 0
Purple nutsedge; [5]
  Nutsedge plant response rating: 0
Purple nutsedge; [10]
  Nutsedge plant response rating (0 to 10 scale): 0
Purple nutsedge; [6]
  Nutsedge plant response rating: 0
Purple nutsedge; [7]
  Plant response rating, Nutsedge: 0
Purple nutsedge; [8]
  Nutsedge plant response rating: 0
Purple nutsedge; [9]
  Nutsedge plant response rating: 0
Purple nutsedge; Rate 250 g/ha, Postemergence
  Plant response rating (0 to 10; 0 is no effect, 10 is complete control), Nutsedge: 0
Purple nutsedge; [11]
  Nutsedge plant response rating: 0
rape; [5]
  Rape plant response rating: 0
rape; [10]
  Rape plant response rating (0 to 10 scale): 0
rape; [6]
  Rape plant response rating: 0
rape; [7]
  Plant response rating, Rape: 0
rape; [8]
  Rape plant response rating: 0
rape; [9]
  Rape plant response rating: 0
rape; Rate 250 g/ha, Postemergence
  Plant response rating (0 to 10; 0 is no effect, 10 is complete control), Rape: 0
rape; [11]
  Rape plant response rating: 0
Giant foxtail; [5]
  Giant foxtail plant response rating: 0
Giant foxtail; [10]
  Giant foxtail plant response rating (0 to 10 scale): 3
Giant foxtail; [6]
  Giant foxtail plant response rating: 8
Giant foxtail; [7]
  Plant response rating, Giant foxtail: 9
Giant foxtail; [8]
  Giant foxtail plant response rating: 0
Giant foxtail; [9]
  Giant foxtail plant response rating: 0
Giant foxtail; Rate 250 g/ha, Postemergence
  Plant response rating (0 to 10; 0 is no effect, 10 is complete control), Giant foxtail: 0
Giant foxtail; [11]
  Giant foxtail plant response rating: 0
morningglory; [5]
  Morningglory plant response rating: 0
morningglory; [10]
  Morningglory plant response rating (0 to 10 scale): 0
morningglory; [6]
  Morningglory plant response rating: 0
morningglory; [7]
  Plant response rating, Morningglory: 0
morningglory; [8]
  Morningglory plant response rating: 1
morningglory; [9]
  Morningglory plant response rating: 1
morningglory; Rate 250 g/ha, Postemergence
  Plant response rating (0 to 10; 0 is no effect, 10 is complete control), Morningglory: 2
morningglory; [11]
  Morningglory plant response rating: 5
Sugar beet; [5]
  Sugarbeets plant response rating: 0
Sugar beet; [10]
  Sugarbeets plant response rating (0 to 10 scale): 0
Sugar beet; [6]
  Sugarbeets plant response rating: 0
Sugar beet; [7]
  Plant response rating, Sugarbeets: 0
Sugar beet; [8]
  Sugarbeets plant response rating: 0
Sugar beet; [9]
  Sugarbeets plant response rating: 0
Sugar beet; Rate 250 g/ha, Postemergence
  Plant response rating (0 to 10; 0 is no effect, 10 is complete control), Sugarbeets: 0
Sugar beet; [11]
  Sugarbeets plant response rating: 0
wheat; [5]
  Wheat plant response rating: 0
wheat; [6]
  Wheat plant response rating: 0
wheat; [7]
  Plant response rating, Wheat: 0
wheat; [8]
  Wheat plant response rating: 0
wheat; [9]
  Wheat plant response rating: 0
wheat; Rate 250 g/ha, Postemergence
  Plant response rating (0 to 10; 0 is no effect, 10 is complete control), Wheat: 0
blackgrass; [5]
  Blackgrass plant response rating: 0
blackgrass; [10]
  Blackgrass plant response rating (0 to 10 scale): 0
blackgrass; [6]
  Blackgrass plant response rating: 0
blackgrass; [7]
  Plant response rating, Blackgrass: 0
blackgrass; [8]
  Blackgrass plant response rating: 0
blackgrass; [9]
  Blackgrass plant response rating: 0
blackgrass; Rate 250 g/ha, Postemergence
  Plant response rating (0 to 10; 0 is no effect, 10 is complete control), Blackgrass: 0
blackgrass; [11]
  Blackgrass plant response rating: 0
pigweed; [5]
  Redroot pigweed plant response rating: 0
pigweed; [10]
  Redroot pigweed plant response rating (0 to 10 scale): 0
pigweed; [6]
  Redroot pigweed plant response rating: 0
pigweed; [7]
  Plant response rating, Redroot pigweed: 3
pigweed; [8]
  Redroot pigweed plant response rating: 0
pigweed; [9]
  Redroot pigweed plant response rating: 0
pigweed; Rate 250 g/ha, Postemergence
  Plant response rating (0 to 10; 0 is no effect, 10 is complete control), Redroot pigweed: 3
pigweed; [11]
  Redroot pigweed plant response rating: 0
soybean; [5]
  Soybean plant response rating: 0
soybean; [10]
  Soybean plant response rating (0 to 10 scale): 1
soybean; [6]
  Soybean plant response rating: 0
soybean; [7]
  Plant response rating, Soybean: 0
soybean; [8]
  Soybean plant response rating: 0
soybean; [9]
  Soybean plant response rating: 1
soybean; Rate 250 g/ha, Postemergence
  Plant response rating (0 to 10; 0 is no effect, 10 is complete control), Soybean: 2
soybean; [11]
  Soybean plant response rating: 2
